Results: patent publication US20210213097A1, “PEPTIDE INTERACTING WITH TOLL-LIKE RECEPTOR 2 AND THE COMPOSITION COMPRISING THE SAME” (NATIONAL TAIPEI UNIVERSITY OF TECHNOLOGY, priority 2020, published 2021)
“Also recorded” adds a separate entry of the source.

B1: Amuc_1100*: protein Amuc_1100 of Akkermansia muciniphila which does not include the transmembrane domain, SEQ ID NO.1 (protein, listed as Akkermansia muciniphila)
chain: IVNSKRSELDKKISIAAKEIKSANAAEITPSRSSNEELEKELNRYAKAVGSLETAYKPFLASSALVPTTPTAFQNELKTFRDSLISSCKKKNILITDTSSWLGFQVYSTQAPSVQAASTLGFELKAINSLVNKLAECGLSKFIKVYRPQLPIETPANNPEESDEADQAPWTPMPLEIAFQGDRESVLKAMNAITGMQDYLFTVNSIRIRNERMMPPPIANPAAAKPAAAQPATGAASLTPADEAAAPAAPAIQQVIKPYMGKEQVFVQVSLNLVHFNQPKAQEPSED

Legend:
[1] = target: T1, human TLR2 (Homo sapiens, UniProt O60603); assay: TLR induction screening in recombinant HEK-293 with NF-KB driven SEAP reporter; assay type: cell-based; conditions: final concentration 10 μg/ml; recombinant HEK-293 overexpressing human TLR; FIG. 1A
T1 construct: host or cells: recombinant HEK-293
T1 sequence (O60603 21-784): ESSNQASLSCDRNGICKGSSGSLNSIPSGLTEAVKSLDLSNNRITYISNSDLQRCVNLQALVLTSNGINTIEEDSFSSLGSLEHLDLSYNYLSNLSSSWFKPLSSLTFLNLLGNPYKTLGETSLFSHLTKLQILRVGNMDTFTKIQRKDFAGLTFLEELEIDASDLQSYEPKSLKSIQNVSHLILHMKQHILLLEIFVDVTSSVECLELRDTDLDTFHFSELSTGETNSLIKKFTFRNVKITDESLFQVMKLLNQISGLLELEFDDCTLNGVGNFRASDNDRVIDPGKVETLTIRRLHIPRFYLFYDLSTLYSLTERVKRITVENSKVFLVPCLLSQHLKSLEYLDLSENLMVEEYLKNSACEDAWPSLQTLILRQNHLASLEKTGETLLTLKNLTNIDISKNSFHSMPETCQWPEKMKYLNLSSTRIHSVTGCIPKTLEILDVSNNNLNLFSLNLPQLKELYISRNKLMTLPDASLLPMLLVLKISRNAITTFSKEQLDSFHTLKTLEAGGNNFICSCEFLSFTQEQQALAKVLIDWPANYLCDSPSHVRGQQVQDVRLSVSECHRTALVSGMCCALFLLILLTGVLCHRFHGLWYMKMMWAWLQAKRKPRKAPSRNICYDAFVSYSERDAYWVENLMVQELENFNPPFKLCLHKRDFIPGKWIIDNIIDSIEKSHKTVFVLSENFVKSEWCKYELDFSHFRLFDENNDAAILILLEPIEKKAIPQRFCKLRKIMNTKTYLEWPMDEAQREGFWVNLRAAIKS
Description: Human Embryonic Kidney Cells 293 (HEK-293) were treated with the peptide fragments as disclosed herein.
Samples and controls are tested in duplicate on recombinant HEK-293 cell lines. These cell lines functionally overexpress human TLR as well as a reporter gene which is a secreted alkaline phosphatase (SEAP). The production of this reporter gene is driven by a NF-KB inducible promoter. The level of activation is given as optical density values (OD).
Samples in 100 μg/ml were diluted to a final concentration of 10 μg/ml in the reaction volume. Sample and controls are tested in duplicated wells. BSA is used as negative control.
SEAP reporter is detected as OD value. OD value is subtracted by average non-induced (NI) value. The NI subtracted duplicates are averaged and presented in a histogram. The reagents and materials employed in the instant examples were provided by Invivogen.

[2] = tested on: gene expression of MPX, IL10, CD86, and IL4; assay: RT-qPCR of gene expression in zebra fish treated with peptide, Example 3; assay type: in vivo; conditions: Day 13, FIG. 4
Description: Y axis (-ΔΔCT) represents the difference in the threshold cycle of amplification. **: P<0.01; ****: P<0.0001. Further, the RT(reversed-transcription)-qPCR was conducted to detect the quantity of gene expression of MPX, IL10, CD86, and IL4 in the zebra fish treated with AMSS according to the present example. […] (FIG. 4)

[3] = tested on: zebra fish; assay: Treatment of obesity in zebra fish, Example 3: body weight and glucose; assay type: in vivo; conditions: 0.03 μg/day/fish
Text: Zebra fish has been for a long time used as a model of obesity in many reports (Hasumura et al. Nutrition & Metabolism (2012); […] et al. Nutrition & Metabolism (2011); Oka et al. BMC Physiology (2010); Shimada et al. Nutrition & Metabolism (2015); Meguro et al. Scientific Reports (2019); Montalbano et al. Endocrine (2018); Yang et al. Cancer (2019)), which is also used herein as the subject of treatment of obesity with the peptides as disclosed herein. All peptides used in the present example were purified through CHT beads to remove endotoxin. LAL assay was further conducted and it was confirmed that the residue of endotoxin was under 0.25 EU/ml. Zebra fish was bred in 25° C. water (pH 6.5-7.5, conductivity 250-750 S·m^-1, NH3<0.25 ppm, NO2<0.25 ppm, NO3<0.5 ppm) and was fed with normal diet bid. (brine shrimp). Each group of experimentation comprises 10 zebra fish (n=10). The gavage feeding of Zebra fish follows the protocol disclosed in Collymore et al. (Journal of Visualized Experiment (2013)). During 13 days of experimentation, the zebra fish were fed once a day with the peptide fragments as disclosed herein in a 1× dose of 0.03 μg/day/fish. The weight of zebra fish was measured respectively on day 0, 1, 3, 6, 9, 12 and 13. In the present example, five groups of zebra fish were administered with the peptides as disclosed herein: […]

[4] = tested on: zebra fish; assay: Zebra fish fed 6 times per day (autofat animal model), Example 5: body weight and glucose; assay type: in vivo; conditions: Example 5, normal diet 6 times per day; for level of glucose: Day 13, FIG. 8 lower panel; for body weight at end of experimentation (Day 13) compared to the original level and the GST group: FIG. 8
Description: Zebra fish was bred in 25° C. water (pH 6.5-7.5, conductivity 250-750 S·m^−1, NH3<0.25 ppm, NO2<0.25 ppm, NO3<0.5 ppm) and was fed with normal diet bid. (brine shrimp). Each group of experimentation comprises 10 zebra fish (n=10). The gavage feeding of Zebra fish follows the protocol disclosed in Collymore et al. (Journal of Visualized Experiment (2013)). During 13 days of experimentation, the zebra fish were fed once a day with the peptide fragments as disclosed herein in a 1× dose of 0.03 μg/day/fish. The weight of zebra fish was measured respectively on day 0, 1, 3, 6, 9, 12 and 13. In the present example, five groups of zebra fish were administered with the peptides as disclosed herein: The material and method employed in the present example is similar to that of Example 3, which is not repeated herein, except the following difference. In the present example, Zebra fish was bred and fed with normal diet (brine shrimp) 6 times per day and also with the peptide as disclosed herein once per day, to induce an autofat animal model. In the present example, five groups of zebra fish were administered with the peptides as disclosed herein: […]

Molecule	induction of TLR (SEAP reporter, OD) [1]	gene expression of IL4 [2]	gene expression of IL10 [2]	gene expression of MPX [2]	glucose detected in the serum of zebra fish ([3]; Day 13, FIG. 3 lower panel)	reduction in body weight at end of experimentation (Day 13) ([3]; Day 13 versus day 0, FIG. 3 upper panel)	change in body weight of zebra fish ([3]; gavage once a day, 13 days, normal diet bid, FIG. 2)	reduction of body weight in average ([3]; gavage once a day, end of experimentation, FIG. 2)	level of glucose [4]	body weight at end of experimentation (Day 13) compared to the original level and the GST group [4]
AMS5: fragment of Amuc_1100*, sequence AINSLVNKLAECGLSKFIKVYRPQL (listed as Akkermansia muciniphila)	strongly and specifically activated; also recorded: capable to activate TLR2; also recorded: shows the activity for induction of TLR	significantly reduced	significantly reduced	did not	did not reduce	shows statistical significance	significant reduction in body weight	approximately 20 mg		
AMS5-2: fragment of Amuc_1100*, sequence GLSKFIKVYRPQL (listed as Akkermansia muciniphila)									reduced	further reduced
B1									reduced	further reduced
